Laboratory results as given in patent US20230382966A1, “NOVEL KLOTHO INTERACTION SITE IN THE C-TERMINUS OF FGF23” (INDIANA UNIVERSITY RESEARCH AND TECHNOLOGY CORPORATION, priority 2020, published 2023).
“Also recorded” adds a separate entry of the source. Each block holds one molecule with its values, some of them ahead of it. Bridges are numbered along the chain shown (N, C = ends). Roman numbers before positions name the chains, in order. Where no end group is shown, it is not given here.

Assays:
FGFR/KL-complex = target: T1, FGFR/KL-complex (Homo sapiens, UniProt Q9UEF7); assay: FGF23-antagonism measured by relative p-Erk levels in 293/KL cells; assay type: cell-based; conditions: for IC50: p-Erk
T1 construct: expressed in transfected cells; host or cells: 293T HEK cells overexpressing human KL (293/KL)
T1 sequence (Q9UEF7 34-1012): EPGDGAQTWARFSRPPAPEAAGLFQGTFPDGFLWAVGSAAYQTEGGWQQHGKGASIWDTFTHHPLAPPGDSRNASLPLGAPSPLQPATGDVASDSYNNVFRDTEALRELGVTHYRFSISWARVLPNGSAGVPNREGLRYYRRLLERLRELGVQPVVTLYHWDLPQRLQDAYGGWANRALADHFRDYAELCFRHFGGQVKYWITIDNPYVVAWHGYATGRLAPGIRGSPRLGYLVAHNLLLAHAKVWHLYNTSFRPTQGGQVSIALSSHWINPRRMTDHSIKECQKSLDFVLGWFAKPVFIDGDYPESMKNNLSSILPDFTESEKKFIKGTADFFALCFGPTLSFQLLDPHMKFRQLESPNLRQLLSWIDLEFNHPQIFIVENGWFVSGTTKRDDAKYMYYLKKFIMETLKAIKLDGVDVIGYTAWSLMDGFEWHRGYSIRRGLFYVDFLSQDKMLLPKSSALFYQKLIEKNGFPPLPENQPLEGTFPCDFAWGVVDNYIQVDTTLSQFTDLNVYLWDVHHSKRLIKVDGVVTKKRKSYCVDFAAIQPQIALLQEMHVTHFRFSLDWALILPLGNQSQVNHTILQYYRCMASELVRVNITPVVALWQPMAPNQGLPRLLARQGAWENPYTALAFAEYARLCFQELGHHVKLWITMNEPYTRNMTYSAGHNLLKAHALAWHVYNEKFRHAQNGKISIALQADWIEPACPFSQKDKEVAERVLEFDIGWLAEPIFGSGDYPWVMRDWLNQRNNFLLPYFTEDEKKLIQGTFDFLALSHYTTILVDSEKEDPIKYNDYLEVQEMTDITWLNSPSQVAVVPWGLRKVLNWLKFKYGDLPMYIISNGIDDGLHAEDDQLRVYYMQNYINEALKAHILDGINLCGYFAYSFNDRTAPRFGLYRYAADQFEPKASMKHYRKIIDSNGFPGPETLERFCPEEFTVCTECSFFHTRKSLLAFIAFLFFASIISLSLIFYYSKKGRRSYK
Text: FIGS. 1A-1F Structure activity analysis among the two KL-interacting peptides C26 and C28. FIG. 1A provides a schematic representation of FGF23 showing the Amino terminal FGF23 core (amino acids 25-179) and the C-terminal portion that comprises two Klotho interaction sites “C26” (amino acids 180-205) and “C28” (amino acids 212-239); FIGS. 1B-1F are graphs presenting FGF23-antagonism measured by the relative p-Erk levels in 293/KL cells with increasing doses of the peptide antagonist. (FIG. 1B) compares C26 and C28; FIG. 1C is a graph showing the effect of the substitutions from C28 sequence into the C26 sequence on the peptide activity, comparing peptides C26(●), 1(▪), 2( ? ), 3(▴), and 4(○); FIG. 1D is a graph showing the effect of the substitutions from C28 sequence in the C26 sequence on the peptide activity, C28(●), 5(▪), 6( ? ), and 7(▴); FIGS. 1E & 1F are graphs showing the activity of shortened FGF23 C-terminal peptide antagonist in vitro. For FIG. 1E peptides C26(●), 8(▪), 9( ? ) are compared; For FIG. 1F peptides 6(●), 10(▪), 11( ? ), and 12(▴).
FIGS. 4A & 4B provide data relating to mutation of the C-terminal FGF23 peptides to assess their KL-interaction site by study of FGF23-activity antagonism in 293/KL cells. FGF23 C-terminal peptides tested for their ability to block FGF23-signaling measured by relative p-Erk levels are shown in FIG. 4A for peptides C26 (●), C28(▪), C26A1(T ? , FGF23^180-205, A^188), C28A2(▴, FGF23^212-239, A^222); and in FIG. 4B for peptides C72(●, FGF23^180-251), C72A1(▪, FGF23^180-251, A^188), C72 A2 ( ? , FGF23^180-251, A^222), C72A1A2(▴, FGF23^180-251, A^188,222). […]

FGFR/KL complex = assay: FGF23-signaling activity (stimulation of Erk-phosphorylation) in 293/KL cells; assay type: cell-based, human
Description: (§1) FIGS. 5A-5D provide data relating to the activities of FGF23-analogs containing one or two active KL-interaction sites by in vitro and in vivo methods. […] FIGS. 5B-5D are scatter plots presenting an in vivo assessment of FGF23-activity in mice. WT mice were treated with 0.5 mg/kg body weight with either FGF23, FGF23 A^188, FGF23 A^222, FGF23 A^188,222, or vehicle, n=5 or 10/group, and post 3-hours the gene expression changes were studied by quantitative real time PCR for target genes, FIG. 5B represents measurement of Cyp24a1, FIG. 5C represents measurement of Cyp27b1, and FIG. 5D represents measurement of Egr1. The data is presented as a scatter plot where each dot represents one animal, mean ±SEM. One-way ANOVA with Tukey's comparison was employed for statistical analyses where***P<0.001 vs. vehicle; #P<0.05, ##P<0.01, ###P<0.001 vs FGF23; and $$$P<0.001 vs FGF23 A^188,222 was calculated.
Whether FGF23-based agonism can employ each of the two KL-interaction sites as witnessed in the C72 peptide antagonist was studied. To do so, a selective mutation at position Asp188 or Asp222 was made in the native FGF23. […] This is consistent with prior reports where C-terminal sequence deletion after residue 205 position had no apparent effect on cellular signaling (FIG. 5A, Table 3). […] Asp188 residue is purported to be singularly essential for KL-binding and FGF23 activity, and its importance was substantiated by the lack of antagonism when the C26 peptide was similarly mutated from Asp to Ala (FIG. 4A). […] To confirm that these observations were not resulting from unexpected changes in higher order structure that was not apparent in biosynthesis, purification, or formulation of the mutant proteins their biophysical integrity were directly assessed by thermal denaturation.
The N-terminal domain of the endocrine FGFs primarily determines the FGFR-activation while the C-terminal sequence guides the co-receptor specificity with a Klotho co-receptor, KL or KLB. The receptor complex specificity among the endocrine FGF-proteins can be modulated by altering their C-terminal domains. Consequently, two FGF21-23 chimeric protein analogs were prepared containing the FGF21 N-terminal core with its C-terminal KLB-binding peptide replaced with an FGF23 C-terminal peptide sequence constituted by C72 (FGF21-23 C72) or C26 (FGF21-23 C26) (Table 3).

[1] = test system: FGFR/KL-downstream targets Cyp24a1, Cyp27b1 and Egr1; assay: Mouse kidney gene expression after FGF23 protein analogs (quantitative real time PCR); assay type: in vivo; conditions: WT mice, 0.5 mg/kg, 3 hours
Description: as §1
To test whether C28 as the second KL-interaction site can promote FGF23 in vivo activity, the single site FGF23-analogs were assessed for their ability to alter kidney gene expression in normal mice. Four proteins (FGF23, FGF23 A188, FGF23 A222 or FGF23 A188, 222 analogs) were each dosed to mice 0.5 mg/kg and 3 hours later quantitative real time PCR was employed to assess kidney mRNA expression of the FGFR/KL-downstream targets Cyp24a1, Cyp27b1 and early growth response protein 1 (Egr1). […] This is not surprising since the optimal treatment time for Egrl modulation is as early as 1 hour for FGF-signaling measurements. The magnitude in upregulation of gene expression for Cyp24a1 was the highest, with twenty-fold induction by native FGF23 treatment (FIG. 5B). […] Similarly, the Egrl induction is reduced for FGF23 A188 and FGF23 A222 analogs as compared to native FGF23 (P<0.05, FIG. 5D), but no difference is observed among the analogs and FGF23 for Cyp27b1 (FIG. 5C).

[2] = Table 2, block of FGF23-signaling
[3] = Table 1, block of FGF23-signaling

Molecule: SAEDDSERDPLNVLKPRARMTPAPASCSQELPSAEDNSPMASAPLGVVRGGRVNTHAGGTGPEGCRPFAKFI [C72 A2, FGF23^180-251, A^222]
IC50 (FGFR/KL-complex; [3]): 33.1 ± 15.8 nM | reduction in inhibitory potency relative to C72 (FGFR/KL-complex; fold): more than twenty-fold

Molecule: SAEDNSPMASDPLGVVRGGRVNTHAGGTGPEGCRPFAKFI [C40]
enhancement of antagonistic potency relative to C28 (FGFR/KL-complex; fold): two to three-fold

Molecule: SAEDDSERAPLNVLKPRARMTPAPASCSQELPSAEDNSPMASDPLGVVRGGRVNTHAGGTGPEGCRPFAKFI [C72 A1, FGF23^180-251, A^188]
IC50 (FGFR/KL-complex; [3]): 24.5 ± 11.5 nM | reduction in inhibitory potency relative to C72 (FGFR/KL-complex; fold): more than twenty-fold

Molecule: I: SAEDNSPMASDPLGVVRPRARMTHAGGTGPEGC / II: SAEDNSPMASDPLGVVRPRARMTHAGGTGPEGC (disulfide I:33-II:33) [Peptide 20]
FGF23-antagonist activity (in words) (FGFR/KL-complex): equal to that of C72; also recorded: no greater potency than C72

Molecule: I: SAEDNSPMASAPLGVVRPRARMTHAGGTGPEGC / II: SAEDNSPMASDPLGVVRPRARMTHAGGTGPEGC (disulfide I:33-II:33) [Peptide 22]
FGF23-antagonist activity (in words) (FGFR/KL-complex): reduced in potency relative to C72 and peptide 20

Molecule: SAEDDSERAPLNVLKPRARMTPAPASCSQELPSAEDNSPMASAPLGVVRGGRVNTHAGGTGPEGCRPFAKFI [C72 A1A2, FGF23^180-251, A^188,222]
FGF23-antagonist activity (in words) (FGFR/KL-complex): complete loss of activity

B1: FGF21: FGF21^29-209 (protein)
chain: HPIPDSSPLLQFGGQVRQRYLYTDDAQQTEAHLEIREDGTVGGAADQSPESLLQLKALKPGVIQILGVKTSRFLCQRPDGALYGSLHFDPEACSFRELLLEDGYNVYQSEAHGLPLHLPGNKSPHRDPAPRGPARFLPLPGLPPALPEPPGILAPQPPDVGSSDPLSMVGPSQGRSPSYAS
FGF23-type agonism / FGFR/KL activation (in words) (FGFR/KL complex): unable to activate

B3: FGF23 A^222: FGF23^25-240, A^222 (protein)
chain: YPNASPLLGSSWGGLIHLYTATARNSYHLQIHKNGHVDGAPHQTIYSALMIRSEDAGFVVITGVMSRRYLCMDFRGNIFGSHYFDPENCRFQHQTLENGYDVYHSPQYHFLVSLGRAKRAFLPGMNPPPYSQFLSRRNEIPLIHFNTPIPRRHTRSAEDDSERDPLNVLKPRARMTPAPASCSQELPSAEDNSPMASAPLGVVRGGRVNTHAGGTG
kidney Cyp24a1 mRNA expression vs vehicle [1]: significant elevation | kidney Cyp27b1 mRNA expression vs vehicle [1]: coordinate suppression | Egr1 induction as compared to native FGF23 ([1]; kidney): reduced | magnitude of Cyp24a1 effect as compared to native FGF23 ([1]; kidney): fractionally reduced | FGF23-type agonism / FGFR/KL activation (in words) (FGFR/KL complex): comparable potency to native protein | EC50 (FGFR/KL complex; Table 3, p-Erk): 0.29 ± 0.12 nM

Now from value to molecule, other results behind:

IC50 (FGFR/KL-complex; [2]): 542 ± 282 nM
Molecule: DPLNVLKPRARM [Peptide 9]

IC50 (FGFR/KL-complex; [2]): 3.8 ± 0.9 nM
Molecule: PMASDPLGVVRPRARM [Peptide 10]

IC50 (FGFR/KL-complex; [2]): 70.9 ± 29.5 nM
Molecule: DPLGVVRPRARM [Peptide 12]

enhancement of FGF23-antagonistic potency of dimer compared to corresponding monomers (FGFR/KL-complex; fold): approximately twenty to fifty-fold
Molecule: I: SAEDNSPMASDPLGVVRGGRVNTHAGGTGPEGC / II: SAEDDSERDPLNVLKPRARMTPAPASGPEGC (disulfide I:33-II:31) [Peptide 19]
FGF23-antagonist activity (in words) (FGFR/KL-complex): indistinguishable from the activity of the two homodimers

enhancement of FGF23-antagonistic potency of dimer compared to corresponding monomers (FGFR/KL-complex; fold): approximately twenty to fifty-fold
Molecule: I: SAEDNSPMASDPLGVVRGGRVNTHAGGTGPEGC / II: SAEDNSPMASDPLGVVRGGRVNTHAGGTGPEGC (disulfide I:33-II:33) [Peptide 18]

IC50 (FGFR/KL-complex; [2]): 17.1 ± 0.6 nM
Molecule: ASDPLGVVRPRARM [Peptide 11]

IC50 (FGFR/KL-complex; [2]): 97 ± 30.3 nM
Molecule: ERDPLNVLKPRARM [Peptide 8]

enhancement of FGF23-antagonistic potency of dimer compared to corresponding monomers (FGFR/KL-complex; fold): approximately twenty to fifty-fold
Molecule: I: SAEDDSERDPLNVLKPRARMTPAPASGPEGC / II: SAEDDSERDPLNVLKPRARMTPAPASGPEGC (disulfide I:31-II:31) [Peptide 17]

IC50 (FGFR/KL-complex; [3]): 1.2 nM | enhancement of antagonistic potency relative to C26 (FGFR/KL-complex; fold): seventy | enhancement of antagonistic potency relative to C28 (FGFR/KL-complex; fold): thirty-fold
B2: FGF23^180-251: SAEDD SER-- DPLNV LKPRA RMTPA PAS CSQELP SAEDNSPMASDPLGVVRGGRVNTHAGGT GPEGC RPFAKFI (peptide)
chain: SAEDDSERDPLNVLKPRARMTPAPASCSQELPSAEDNSPMASDPLGVVRGGRVNTHAGGTGPEGCRPFAKFI
